Data published in the supplement of paper PMC10307832.

Columns and labels:
Experiment in all cases: relative viability (nuclei count vs DMSO), 5 days (fraction); higher = more cells survive
ChaGo-K-1 = test system: ChaGo-K-1
In short: (§1)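 A single step with final 0.05% Triton X-100, 1% formaldehyde and 1 ug/ml Hoechst fixed the cells and stained nuclei 5 days after treatment. Lung cancer cell lines in 1536-well plates had been treated by pin tool the day after seeding with one drug alone or a fixed anchor-drug dose plus five library-drug doses (not always all listed) in √10 steps, and nuclei were counted on 4× images. Relative viability is the ratio of nuclei in treated wells to nuclei in vehicle wells, taken as the median of duplicate plates.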

EKVX = test system: EKVX
In short: as §1

EMC-BAC-2 = test system: EMC-BAC-2
In short: as §1

EPLC-272H = test system: EPLC-272H
In short: as §1

HCC-78 = test system: HCC-78
In short: as §1

HCC-827 = test system: HCC-827
In short: as §1

LCLC-103H = test system: LCLC-103H
In short: as §1

LK-2 = test system: LK-2
In short: as §1

LU99A = test system: LU99A
In short: as §1

LXF-289 = test system: LXF-289
In short: as §1

NCI-H1563 = test system: NCI-H1563
In short: as §1

NCI-H1666 = test system: NCI-H1666
In short: as §1

NCI-H1975 = test system: NCI-H1975
In short: as §1

NCI-H2126 = test system: NCI-H2126
In short: as §1

NCI-H2342 = test system: NCI-H2342
In short: as §1

NCI-H23 = test system: NCI-H23
In short: as §1

NCI-H2405 = test system: NCI-H2405
In short: as §1

NCI-H322M = test system: NCI-H322M
In short: as §1

PC-14 = test system: PC-14
In short: as §1

RERF-LC-KJ = test system: RERF-LC-KJ
In short: as §1

SK-LU-1 = test system: SK-LU-1
In short: as §1

SW 1573 = test system: SW 1573
In short: as §1

SW 900 = test system: SW 900
In short: as §1

COc1nc(C)cnc1NS(=O)(=O)c1cccnc1-c1ccc(-c2nnco2)cc1 [Zibotentan] + COc1cc2c(Oc3ccc(NC(=O)C4(C(=O)Nc5ccc(F)cc5)CC4)cc3F)ccnc2cc1OCCCN1CCOCC1 [Foretinib] (partner 0.25 µM)
relative viability (ChaGo-K-1; first compound 0.08 µM): 0.941
relative viability (ChaGo-K-1; first compound 0.253 µM): 0.926
relative viability (ChaGo-K-1; first compound 0.8 µM): 0.977
relative viability (ChaGo-K-1; first compound 2.53 µM): 0.841
relative viability (EKVX; first compound 0.08 µM): 0.892
relative viability (EKVX; first compound 0.253 µM): 0.762
relative viability (EKVX; first compound 0.8 µM): 1.11
relative viability (EKVX; first compound 2.53 µM): 0.875
relative viability (EMC-BAC-2; first compound 0.08 µM): 1.07
relative viability (EMC-BAC-2; first compound 0.8 µM): 1.05
relative viability (EMC-BAC-2; first compound 2.53 µM): 1.05
relative viability (EPLC-272H; first compound 0.08 µM): 0.696
relative viability (EPLC-272H; first compound 0.253 µM): 0.641
relative viability (EPLC-272H; first compound 0.8 µM): 0.901
relative viability (EPLC-272H; first compound 2.53 µM): 0.787
relative viability (HCC-78; first compound 0.08 µM): 0.535
relative viability (HCC-78; first compound 0.253 µM): 0.484
relative viability (HCC-78; first compound 0.8 µM): 0.588
relative viability (HCC-78; first compound 2.53 µM): 0.518
relative viability (HCC-827; first compound 0.08 µM): 1.06
relative viability (HCC-827; first compound 0.253 µM): 1.01
relative viability (HCC-827; first compound 0.8 µM): 1.11
relative viability (HCC-827; first compound 2.53 µM): 1.09
relative viability (LCLC-103H; first compound 0.08 µM): 0.928
relative viability (LCLC-103H; first compound 0.253 µM): 0.886
relative viability (LCLC-103H; first compound 0.8 µM): 0.797
relative viability (LCLC-103H; first compound 2.53 µM): 0.838
relative viability (LK-2; first compound 0.08 µM): 1.37
relative viability (LK-2; first compound 0.253 µM): 1.31
relative viability (LK-2; first compound 0.8 µM): 0.895
relative viability (LK-2; first compound 2.53 µM): 1.17
relative viability (LU99A; first compound 0.08 µM): 0.953
relative viability (LU99A; first compound 0.253 µM): 0.8
relative viability (LU99A; first compound 0.8 µM): 0.888
relative viability (LU99A; first compound 2.53 µM): 0.918
relative viability (LXF-289; first compound 0.08 µM): 0.965
relative viability (LXF-289; first compound 0.253 µM): 0.95
relative viability (LXF-289; first compound 0.8 µM): 1.05
relative viability (LXF-289; first compound 2.53 µM): 0.954
relative viability (NCI-H1563; first compound 0.08 µM): 0.985
relative viability (NCI-H1563; first compound 0.8 µM): 1.02
relative viability (NCI-H1563; first compound 2.53 µM): 0.979
relative viability (NCI-H1666; first compound 0.08 µM): 0.902
relative viability (NCI-H1666; first compound 0.253 µM): 0.918
relative viability (NCI-H1666; first compound 0.8 µM): 0.938
relative viability (NCI-H1666; first compound 2.53 µM): 0.972
relative viability (NCI-H1975; first compound 0.08 µM): 0.98
relative viability (NCI-H1975; first compound 0.253 µM): 0.849
relative viability (NCI-H1975; first compound 0.8 µM): 0.824
relative viability (NCI-H1975; first compound 2.53 µM): 0.856
relative viability (NCI-H2126; first compound 0.08 µM): 1.33
relative viability (NCI-H2126; first compound 0.253 µM): 1.26
relative viability (NCI-H2126; first compound 0.8 µM): 0.982
relative viability (NCI-H2126; first compound 2.53 µM): 1.14
relative viability (NCI-H2342; first compound 0.08 µM): 1.08
relative viability (NCI-H2342; first compound 0.253 µM): 0.954
relative viability (NCI-H2342; first compound 0.8 µM): 1.03
relative viability (NCI-H2342; first compound 2.53 µM): 1.13
relative viability (NCI-H23; first compound 0.08 µM): 1.08
relative viability (NCI-H23; first compound 0.253 µM): 0.766
relative viability (NCI-H23; first compound 0.8 µM): 0.986
relative viability (NCI-H23; first compound 2.53 µM): 1.17
relative viability (NCI-H2405; first compound 0.08 µM): 1.1
relative viability (NCI-H2405; first compound 0.253 µM): 1.02
relative viability (NCI-H2405; first compound 0.8 µM): 1.04
relative viability (NCI-H2405; first compound 2.53 µM): 1.05
relative viability (NCI-H322M; first compound 0.08 µM): 1.03
relative viability (NCI-H322M; first compound 0.253 µM): 0.782
relative viability (NCI-H322M; first compound 0.8 µM): 0.98
relative viability (NCI-H322M; first compound 2.53 µM): 1.02
relative viability (PC-14; first compound 0.08 µM): 1.03
relative viability (PC-14; first compound 0.253 µM): 0.897
relative viability (PC-14; first compound 0.8 µM): 0.924
relative viability (PC-14; first compound 2.53 µM): 1
relative viability (RERF-LC-KJ; first compound 0.08 µM): 0.836
relative viability (RERF-LC-KJ; first compound 0.253 µM): 0.885
relative viability (RERF-LC-KJ; first compound 0.8 µM): 0.809
relative viability (RERF-LC-KJ; first compound 2.53 µM): 0.849
relative viability (SK-LU-1; first compound 0.08 µM): 0.842
relative viability (SK-LU-1; first compound 0.253 µM): 0.873
relative viability (SK-LU-1; first compound 0.8 µM): 0.855
relative viability (SK-LU-1; first compound 2.53 µM): 0.827
relative viability (SW 1573; first compound 0.08 µM): 0.966
relative viability (SW 1573; first compound 0.253 µM): 0.692
relative viability (SW 1573; first compound 0.8 µM): 0.983
relative viability (SW 1573; first compound 2.53 µM): 0.82
relative viability (SW 900; first compound 0.08 µM): 0.997
relative viability (SW 900; first compound 0.253 µM): 0.811
relative viability (SW 900; first compound 0.8 µM): 0.887
relative viability (SW 900; first compound 2.53 µM): 0.857
